Measurements reported in the supplement of paper PMC10307832.

Columns and labels:
Test in all cases: relative viability (nuclei count vs DMSO), 5 days (fraction); higher = more cells survive
[1] = compound: C1CC(C1)(C(=O)O)C(=O)O.[NH2-].[NH2-].[Pt+2] [Carboplatin] + CC1(C)CCC(c2ccc(Cl)cc2)=C(CN2CCN(c3ccc(C(=O)NS(=O)(=O)c4ccc(N[C@H](CCN5CCOCC5)CSc5ccccc5)c(S(=O)(=O)C(F)(F)F)c4)cc3)CC2)C1 [Navitoclax] (partner 0.5 µM)
Method in brief: (§1)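 For relative viability, nuclei counts in treated wells were divided by those in vehicle wells. Lung cancer cell lines had been pin-tool dosed in 1536-well plates the day after seeding and cultured for 5 days, then fixed and stained in one step (final 0.05% Triton X-100, 1% formaldehyde, 1 ug/ml Hoechst) and imaged at 4×. Doses were one drug alone or a fixed anchor-drug dose plus five library-drug doses (not always all listed) in √10 steps, and values are duplicate-plate medians.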

[2] = compound: CC[C@H](C)N1C=C(C2=C(C=C(C=C21)C3=CN=C(C=C3)N4CCNCC4)C(=O)NCC5=C(C=C(NC5=O)C)C)C [GSK126] + C[C@]1(O)C[C@@H](c2nc(-c3ccc4ccc(-c5ccccc5)nc4c3)c3c(N)nccn32)C1 [Linsitinib] (partner 1 µM)
Method in brief: as §1

[3] = compound: C1CC(C1)(C(=O)O)C(=O)O.[NH2-].[NH2-].[Pt+2] [Carboplatin] + CS(=O)(=O)CCNCc1ccc(-c2ccc3ncnc(Nc4ccc(OCc5cccc(F)c5)c(Cl)c4)c3c2)o1 [Lapatinib] (partner 2 µM)
Method in brief: as §1

[4] = compound: CC[C@H](C)N1C=C(C2=C(C=C(C=C21)C3=CN=C(C=C3)N4CCNCC4)C(=O)NCC5=C(C=C(NC5=O)C)C)C [GSK126] + CC(C)C[C@H](NC(=O)[C@H](Cc1ccccc1)NC(=O)c1cnccn1)B(O)O [Bortezomib] (partner 0.002 µM)
Method in brief: as §1

Cell Line: NCI-H1703
- relative viability ([1]; first compound 0.08 µM): 1.31
- relative viability ([1]; first compound 0.253 µM): 1.2
- relative viability ([1]; first compound 0.8 µM): 1.11
- relative viability ([1]; first compound 2.53 µM): 1.07
- relative viability ([1]; first compound 8 µM): 1.49
- relative viability ([2]; first compound 0.08 µM): 1.25
- relative viability ([2]; first compound 0.253 µM): 0.708
- relative viability ([2]; first compound 0.8 µM): 0.852
- relative viability ([2]; first compound 2.53 µM): 0.82
- relative viability ([2]; first compound 8 µM): 1.5
- relative viability ([3]; first compound 0.08 µM): 1.13
- relative viability ([3]; first compound 0.253 µM): 0.966
- relative viability ([3]; first compound 0.8 µM): 1.13
- relative viability ([3]; first compound 2.53 µM): 0.92
- relative viability ([3]; first compound 8 µM): 1.28
- relative viability ([4]; first compound 0.08 µM): 0.444
- relative viability ([4]; first compound 0.253 µM): 0.339
- relative viability ([4]; first compound 0.8 µM): 0.191
- relative viability ([4]; first compound 2.53 µM): 0.407
- relative viability ([4]; first compound 8 µM): 0.209

Cell Line: NCI-H1793
- relative viability ([1]; first compound 0.08 µM): 0.496
- relative viability ([1]; first compound 0.253 µM): 0.585
- relative viability ([1]; first compound 0.8 µM): 0.388
- relative viability ([1]; first compound 2.53 µM): 0.453
- relative viability ([1]; first compound 8 µM): 0.435
- relative viability ([2]; first compound 0.08 µM): 1.04
- relative viability ([2]; first compound 0.253 µM): 0.777
- relative viability ([2]; first compound 0.8 µM): 0.748
- relative viability ([2]; first compound 2.53 µM): 0.982
- relative viability ([2]; first compound 8 µM): 0.82
- relative viability ([3]; first compound 0.08 µM): 0.941
- relative viability ([3]; first compound 0.253 µM): 0.49
- relative viability ([3]; first compound 0.8 µM): 0.485
- relative viability ([3]; first compound 2.53 µM): 0.628
- relative viability ([3]; first compound 8 µM): 0.833

Cell Line: LOU-NH91
- relative viability ([1]; first compound 0.08 µM): 0.831
- relative viability ([1]; first compound 0.253 µM): 0.642
- relative viability ([1]; first compound 0.8 µM): 0.667
- relative viability ([1]; first compound 2.53 µM): 0.706
- relative viability ([1]; first compound 8 µM): 0.624
- relative viability ([2]; first compound 0.08 µM): 0.975
- relative viability ([2]; first compound 0.253 µM): 0.884
- relative viability ([2]; first compound 0.8 µM): 0.924
- relative viability ([2]; first compound 2.53 µM): 0.977
- relative viability ([2]; first compound 8 µM): 0.973
- relative viability ([3]; first compound 0.08 µM): 0.84
- relative viability ([3]; first compound 0.253 µM): 0.755
- relative viability ([3]; first compound 0.8 µM): 0.838
- relative viability ([3]; first compound 2.53 µM): 0.819
- relative viability ([3]; first compound 8 µM): 0.735
- relative viability ([4]; first compound 0.08 µM): 0.444
- relative viability ([4]; first compound 0.253 µM): 0.475
- relative viability ([4]; first compound 0.8 µM): 0.498
- relative viability ([4]; first compound 2.53 µM): 0.439
- relative viability ([4]; first compound 8 µM): 0.501

Cell Line: NCI-H1355
- relative viability ([1]; first compound 0.08 µM): 1.02
- relative viability ([1]; first compound 0.253 µM): 1.01
- relative viability ([1]; first compound 0.8 µM): 0.853
- relative viability ([1]; first compound 2.53 µM): 0.912
- relative viability ([1]; first compound 8 µM): 0.921
- relative viability ([2]; first compound 0.08 µM): 0.947
- relative viability ([2]; first compound 0.253 µM): 0.872
- relative viability ([2]; first compound 0.8 µM): 0.793
- relative viability ([2]; first compound 2.53 µM): 0.637
- relative viability ([2]; first compound 8 µM): 0.841
- relative viability ([3]; first compound 0.08 µM): 1.12
- relative viability ([3]; first compound 0.253 µM): 1.11
- relative viability ([3]; first compound 0.8 µM): 1.09
- relative viability ([3]; first compound 2.53 µM): 1.06
- relative viability ([3]; first compound 8 µM): 0.93
- relative viability ([4]; first compound 0.08 µM): 1.27
- relative viability ([4]; first compound 0.253 µM): 1.33
- relative viability ([4]; first compound 0.8 µM): 1.11
- relative viability ([4]; first compound 2.53 µM): 1.17
- relative viability ([4]; first compound 8 µM): 1.19

Cell Line: NCI-H441
- relative viability ([1]; first compound 0.08 µM): 0.657
- relative viability ([1]; first compound 0.253 µM): 1.19
- relative viability ([1]; first compound 0.8 µM): 0.447
- relative viability ([1]; first compound 2.53 µM): 0.545
- relative viability ([1]; first compound 8 µM): 0.526
- relative viability ([2]; first compound 0.08 µM): 0.684
- relative viability ([2]; first compound 0.253 µM): 0.583
- relative viability ([2]; first compound 0.8 µM): 0.599
- relative viability ([2]; first compound 2.53 µM): 0.578
- relative viability ([2]; first compound 8 µM): 0.651
- relative viability ([4]; first compound 0.08 µM): 0.445
- relative viability ([4]; first compound 0.253 µM): 0.452
- relative viability ([4]; first compound 0.8 µM): 0.419
- relative viability ([4]; first compound 2.53 µM): 0.507
- relative viability ([4]; first compound 8 µM): 0.519

Cell Line: NCI-H1395
- relative viability ([1]; first compound 0.08 µM): 1.16
- relative viability ([1]; first compound 0.253 µM): 1.2
- relative viability ([1]; first compound 0.8 µM): 0.799
- relative viability ([1]; first compound 2.53 µM): 0.845
- relative viability ([1]; first compound 8 µM): 0.591
- relative viability ([2]; first compound 0.08 µM): 1.26
- relative viability ([2]; first compound 0.253 µM): 1.01
- relative viability ([2]; first compound 0.8 µM): 0.991
- relative viability ([2]; first compound 2.53 µM): 0.998
- relative viability ([2]; first compound 8 µM): 1.08
- relative viability ([3]; first compound 0.08 µM): 1.23
- relative viability ([3]; first compound 0.253 µM): 1.06
- relative viability ([3]; first compound 0.8 µM): 0.984
- relative viability ([3]; first compound 2.53 µM): 0.841
- relative viability ([3]; first compound 8 µM): 0.607

Cell Line: NCI-H2023
- relative viability ([1]; first compound 0.08 µM): 1.02
- relative viability ([1]; first compound 0.253 µM): 0.96
- relative viability ([1]; first compound 0.8 µM): 0.883
- relative viability ([1]; first compound 2.53 µM): 0.76
- relative viability ([1]; first compound 8 µM): 0.312
- relative viability ([2]; first compound 0.08 µM): 0.778
- relative viability ([2]; first compound 0.253 µM): 0.679
- relative viability ([2]; first compound 0.8 µM): 0.644
- relative viability ([2]; first compound 2.53 µM): 0.757
- relative viability ([2]; first compound 8 µM): 0.755
- relative viability ([3]; first compound 0.08 µM): 0.941
- relative viability ([3]; first compound 0.253 µM): 1.21
- relative viability ([3]; first compound 0.8 µM): 0.954
- relative viability ([3]; first compound 2.53 µM): 0.68
- relative viability ([3]; first compound 8 µM): 0.257
- relative viability ([4]; first compound 0.08 µM): 1.45
- relative viability ([4]; first compound 0.253 µM): 1.01
- relative viability ([4]; first compound 0.8 µM): 1.19
- relative viability ([4]; first compound 2.53 µM): 1.39
- relative viability ([4]; first compound 8 µM): 1.37

Cell Line: NCI-H1666
- relative viability ([1]; first compound 0.08 µM): 1.04
- relative viability ([1]; first compound 0.253 µM): 1.12
- relative viability ([1]; first compound 0.8 µM): 0.745
- relative viability ([1]; first compound 2.53 µM): 0.853
- relative viability ([1]; first compound 8 µM): 0.641
- relative viability ([2]; first compound 0.08 µM): 0.857
- relative viability ([2]; first compound 0.253 µM): 1.01
- relative viability ([2]; first compound 0.8 µM): 0.898
- relative viability ([2]; first compound 2.53 µM): 0.768
- relative viability ([2]; first compound 8 µM): 1.08
- relative viability ([3]; first compound 0.08 µM): 0.662
- relative viability ([3]; first compound 0.253 µM): 0.665
- relative viability ([3]; first compound 0.8 µM): 0.578
- relative viability ([3]; first compound 2.53 µM): 0.498
- relative viability ([3]; first compound 8 µM): 0.468
- relative viability ([4]; first compound 0.08 µM): 0.826
- relative viability ([4]; first compound 0.253 µM): 0.962
- relative viability ([4]; first compound 0.8 µM): 0.814
- relative viability ([4]; first compound 2.53 µM): 0.808
- relative viability ([4]; first compound 8 µM): 1.01

Cell Line: HCC-15
- relative viability ([1]; first compound 0.08 µM): 0.73
- relative viability ([1]; first compound 0.253 µM): 0.702
- relative viability ([1]; first compound 0.8 µM): 0.718
- relative viability ([1]; first compound 2.53 µM): 0.699
- relative viability ([1]; first compound 8 µM): 0.604
- relative viability ([2]; first compound 0.08 µM): 0.927
- relative viability ([2]; first compound 0.253 µM): 0.683
- relative viability ([2]; first compound 0.8 µM): 0.891
- relative viability ([2]; first compound 2.53 µM): 0.957
- relative viability ([2]; first compound 8 µM): 0.827
- relative viability ([3]; first compound 0.08 µM): 0.919
- relative viability ([3]; first compound 0.253 µM): 0.854
- relative viability ([3]; first compound 0.8 µM): 0.875
- relative viability ([3]; first compound 2.53 µM): 0.814
- relative viability ([3]; first compound 8 µM): 0.66
- relative viability ([4]; first compound 0.08 µM): 1.04
- relative viability ([4]; first compound 0.253 µM): 1.1
- relative viability ([4]; first compound 0.8 µM): 0.974
- relative viability ([4]; first compound 2.53 µM): 0.957
- relative viability ([4]; first compound 8 µM): 0.975
